Reference: patent publication US9149489B2, “Inhibitors of glycolysis useful in the treatment of brain tumors” (Board of Regents, University of Texas System, priority 2006, dated 2015)
Like-named read-outs stand apart in the source and are kept apart here.

Columns and labels:
U87 cells [1] = assay: Transmission electron microscopy / detection of autophagosomes; format: cell-based, human
Protocol: FIGS. 16a through 16d provides electron micrographs of 2-DFG induced autophagy in U87 cells (5 mM, 72 h treatment, 5.6 mM low glucose media).
(§1) To test the ability of the 2-DFG to induce autophagic cell death, we monitored the increase in acidic vesicular organelles (AVO) using acridine orange staining in U87 cells treated with increasing concentrations of 2-DFG for 72 hours under hypoxia and normoxia. […] Therefore, targeting the energetic metabolism of cancer cells and the autophagic survival response using inhibitors of glycolysis is a promising therapeutic approach for the treatment of cancers that are dependent on glycolysis for survival.

U87 glioblastoma cells [2] = assay: U87 cell viability (MTT) assay under normoxia and hypoxia; format: cell-based, human; conditions: for IC50: Homo sapiens, U-87 MG, 72 h
Protocol: (§2) Cell viability experiments were carried out in U87 glioblastoma cells with 8000 cells/well in flat bottom 96 well plates. The cells were grown in low glucose (5.4 mM) DMEM/F12 media with 10% FBS and antibiotics. 24 hours after plating, cells were treated with increasing concentration of 2-deoxy-2,2-difluoro-D-arabino-hexopyranose (DFG) for 72 hours in normoxic (21% O2) or hypoxic (0.1% O2) conditions. In addition, to test the ability of monosachamides to compete with DFG in inhibiting glycolysis and glycosylation, cells were treated with increasing concentrations of glucose, mannose or galactose. The experiments were carried out in duplicate (n=2).
(§3) U87 human glioma cancer cells were obtained from the American Type Culture Collection (Manassas, Va.) and maintained in a humidified atmosphere containing 5% CO2 at 37° C. Cells were routinely cultured in DMEM/F12 medium (Invitrogen Corp., Grand Island, N.Y.) supplemented with 10% heat inactivated fetal bovine serum (Hyclone Laboratories Inc., Logan, Utah), 50 IU/ml penicillin and […] streptomycin from GIBCO (Invitrogen). Cell viability experiments were carried out in U87 cells with 8000 cells/well in flat bottom 96 well plates. The cells were grown in low glucose (5.4 mM) DMEM/F12 media supplied with 10% FBS and antibiotics. 24 hours after plating, cells were treated with increasing concentration (1 to 10 mM) of 2-difluoro-D-glucose (DFG) for 72 hours in normoxic (21% O2) or hypoxic (approximately 0.1% O2) conditions. To test the competing ability of glucose, galactose and mannose with DFG, the cells were also treated with increasing concentration of the glucose (5, 10, and 20 mM), galactose (5, 10, and 20 mM) or mannose (0.1, 1, and 5 mM). The experiments were carried out in duplicate (n=2). After 72 hours of treatment, inhibition of cellular proliferation was assessed by the MTT assay. Absorbance was read at a wavelength of 570 nm using a V Max Micro plate reader by Molecular Devices, Inc. (Sunnyvale, Calif.). The cytoctoxicity of 2-DFG was calculated by normalization to the 100% viability of the control (untreated cells) and presented as percent control.

U87 glioblastoma cells [3] = assay: U87 cell viability assay with co-treatment by D-glucose, D-mannose or D-galactose (competition); format: cell-based, human; conditions: for Viability Protection by D-Mannose Under Hypoxia (IC50 shift) / Viability Protection by D-Mannose Under Normoxia (IC50 shift): co-treatment with 0.1 mM of D-mannose; for Viability Protection by D-Galactose Under Hypoxia (IC50 shift) / Viability Protection by D-Galactose Under Normoxia (IC50 shift): co-treatment with 5 mM of D-galactose; for Viability Protection by D-Glucose Under Hypoxia (IC50 shift) / Viability Protection by D-Glucose Under Normoxia (IC50 shift): co-treatment with 5 mM of D-glucose
Protocol: as §2, §3

orthotopic glioma model = assay: Orthotopic glioma model, antitumor activity in vivo; conditions: compared with temozolomide
U87 cells [4] = assay: Cell cycle analysis; format: cell-based, human; conditions: 5 mM, 72 h
U87 cells [5] = assay: Acridine orange staining of acidic vesicular organelles (AVO), autophagy; format: cell-based, human; conditions: 72 hours, increasing concentrations, hypoxia and normoxia
Protocol: FIGS. 14a through 14f provide the quantification of 2-DFG induced autophagy in U87 glioma cells after 72 h of normoxia treatment in 5.6 mM low glucose media using acridine orange-acid vesicular organelles (AVO) straining assay.
FIGS. 15a through 15f provide the quantification of 2-DFG induced autophagy in U87 glioma cells after 72 h of hypoxia treatment in 5.6 mM low glucose media using acridine orange-acid vesicular organelles (AVO) straining assay.
as §1

[6] = hypoxia (0.1% O2), 72 hours, low glucose media, read-out: Inhibition under Hypoxia (IC50, U87 cell viability)
[7] = normoxia (21% O2), 72 hours, low glucose media, read-out: Inhibition under Normoxia (IC50, U87 cell viability)

| IC50 (U87 glioblastoma cells [2]; [6]) | IC50 (U87 glioblastoma cells [2]; [7]) | SMILES | Stimulation of autophagy (detection of autophagosomes after treatment) (U87 cells [1]; U87 Glioblastoma cells, preliminary studies) | Viability Protection by D-Mannose Under Hypoxia (IC50 shift) (U87 glioblastoma cells [3]) | Viability Protection by D-Galactose Under Hypoxia (IC50 shift) (U87 glioblastoma cells [3]) | Viability Protection by D-Glucose Under Hypoxia (IC50 shift) (U87 glioblastoma cells [3]) | Viability Protection by D-Mannose Under Normoxia (IC50 shift) (U87 glioblastoma cells [3]) | Viability Protection by D-Galactose Under Normoxia (IC50 shift) (U87 glioblastoma cells [3]) | Viability Protection by D-Glucose Under Normoxia (IC50 shift) (U87 glioblastoma cells [3]) | Antitumor activity in vivo (orthotopic glioma model) | Autophagosomes by electron microscopy (U87 cells [1]; 5 mM, 72 h treatment, normoxia) | Cell cycle distribution: G2/M phase (U87 cells [4]) | Cell cycle distribution: Sub G0/G1 phase (U87 cells [4]) | IC50 (U87 glioblastoma cells [2]; hypoxic conditions (0.1% O2), read-out: IC50 (cytotoxicity in U87 cells)) | IC50 (U87 glioblastoma cells [2]; normoxic conditions (21% O2), read-out: IC50 (cytotoxicity in U87 cells)) | Concentration giving substantial inhibition of cellular growth (U87 glioblastoma cells [2]; hypoxic conditions) | Concentration required for substantial inhibition of cellular growth (U87 glioblastoma cells [2]; normoxic conditions) | Acidic vesicular organelles (AVO), acridine orange staining (U87 cells [5]) |
| --- | --- | --- | --- | --- | --- | --- | --- | --- | --- | --- | --- | --- | --- | --- | --- | --- | --- | --- |
| ≥ 1800 µM | ≥ 1800 µM | O=CC[C@@H](O)[C@H](O)[C@H](O)CO [2-DG, 2-Deoxy-D-glucose, reference compound] | able to stimulate the process of autophagy | ++ (~1.5-2 mM IC50 shift after co-treatment with 0.1 mM of D-mannose) | − (0-0.5 mM IC50 shift after co-treatment with 5 mM of D-galactose.) | +++ (>5 mM IC50 shift after co-treatment with 5 mM of D-glucose) | +++ (>5 mM IC50 shift after co-treatment with 0.1 mM of D-mannose) | − (0-0.5 mM IC50 shift after co-treatment with 5 mM of D-galactose.) | + (~1 mM IC50 shift after co-treatment with 5 mM of D-glucose) | comparable to that of temozolomide |  |  |  |  |  |  |  |  |
|  |  | O=C[C@H](F)[C@@H](O)[C@H](O)[C@H](O)CO [2-FG, 2-fluoro-2-deoxy-D-glucose] |  |  |  |  |  |  |  | comparable to that of temozolomide |  |  |  |  |  |  |  |  |
|  |  | O=C[C@@H](F)[C@@H](O)[C@H](O)[C@H](O)CO [2-FM, 2-fluoro-2-deoxy-D-mannose] |  |  |  |  |  |  |  | comparable to that of temozolomide |  |  |  |  |  |  |  |  |
| 1500 to 1800 µM | ≥ 1800 µM | OC[C@H]1OC(O)C(F)(F)[C@@H](O)[C@@H]1O (stereo partly drawn) [DFG, 2-Deoxy-2,2-difluoro-D-arabino-hexopyranose] |  | − (0-0.5 mM IC50 shift after co-treatment with 0.1 mM of D-mannose) | − (0-0.5 mM IC50 shift after co-treatment with 5 mM of D-galactose.) | ++ (~1.5-2 mM IC50 shift after co-treatment with 5 mM of D-glucose) | + (~1 mM IC50 shift after co-treatment with 0.1 mM of D-mannose) | − (0-0.5 mM IC50 shift after co-treatment with 5 mM of D-galactose.) | + (~1 mM IC50 shift after co-treatment with 5 mM of D-glucose) |  | extensive presence of autophagosomes | significant increase in G2/M phase | no significant increase in Sub G0/G1 phase | 1200 µM | 2900 µM | lower than 4 mM | above 6 mM | concentration dependent increase in acridine orange staining |
